Experimental findings from patent publication US12252488B2 (Nimbus Saturn, Inc., priority 2021, dated 2025) are described below.

T1 sequence (Q92918 whole entry): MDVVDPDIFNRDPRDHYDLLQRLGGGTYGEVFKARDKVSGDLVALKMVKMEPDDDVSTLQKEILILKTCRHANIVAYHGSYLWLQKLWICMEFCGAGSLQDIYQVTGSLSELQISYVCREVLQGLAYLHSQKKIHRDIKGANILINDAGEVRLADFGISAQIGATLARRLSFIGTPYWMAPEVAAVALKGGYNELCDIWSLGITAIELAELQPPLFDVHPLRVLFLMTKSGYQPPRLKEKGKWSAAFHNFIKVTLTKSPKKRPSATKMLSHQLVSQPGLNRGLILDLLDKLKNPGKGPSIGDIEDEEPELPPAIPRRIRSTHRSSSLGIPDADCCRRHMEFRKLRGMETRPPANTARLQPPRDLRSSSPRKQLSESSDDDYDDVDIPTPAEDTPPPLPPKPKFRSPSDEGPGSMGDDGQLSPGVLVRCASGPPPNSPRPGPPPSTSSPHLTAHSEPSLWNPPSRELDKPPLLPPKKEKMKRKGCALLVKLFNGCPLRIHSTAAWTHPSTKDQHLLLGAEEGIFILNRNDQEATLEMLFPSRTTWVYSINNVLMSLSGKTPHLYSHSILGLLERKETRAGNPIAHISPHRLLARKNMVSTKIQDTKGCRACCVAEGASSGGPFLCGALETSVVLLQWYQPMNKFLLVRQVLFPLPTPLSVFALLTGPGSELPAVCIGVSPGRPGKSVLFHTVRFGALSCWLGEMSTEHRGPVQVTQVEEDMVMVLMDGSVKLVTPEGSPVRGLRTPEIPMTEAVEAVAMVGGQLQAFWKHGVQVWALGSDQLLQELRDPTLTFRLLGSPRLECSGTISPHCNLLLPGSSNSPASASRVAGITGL

This experiment addresses T1, HPK1 (Homo sapiens, UniProt Q92918).
T1 construct: purchased Invitrogen
Description: HPK1 biochemical enzyme assay (microfluidic mobility shift assay). Particulars: 1000 uM (1 mM) ATP; Caliper mobility shift; 1.5 nM HPK1; 30 min preincubation; read-out: HPK1 1000UMATP caliper IC50. A digest of the protocol:
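IC50 values, grouped into activity categories, come from 10-point titrations (top final 3 μM) preincubated 30 min with 1.5 nM enzyme and substrate at pH 7.4. ATP (1 mM), substrate (1 μM) and MgCl2 (5 mM) then added; after 60 min at RT, product separated by microfluidic mobility shift.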
In the case of `Cc1nc2cc(-c3cc(Nc4ccc(N5CCC(O)CC5)cn4)c4c(=O)[nH]ccc4n3)c(F)cc2o1` [I-182, 2-(6-fluoro-2-methyl-1,3-benzoxazol-5-yl)-4-[[5-(4-hydroxy-1-piperidyl)-2-pyridyl]amino]-6H-1,6-naphthyridin-5-one], the IC50 (in general, the concentration needed to halve the response being measured) was more than 1000 nM.
In the case of `O=c1[nH]ccc2nc(-c3cccc(CN4CCCCC4)c3F)cc(Nc3ccc(N4CCC(O)CC4)cn3)c12` [I-183, 2-[2-fluoro-3-(1-piperidyl-methyl)phenyl]-4-[[5-(4-hydroxy-1-piperidyl)-2-pyridyl]amino]-6H-1,6-naphthyridin-5-one] it was not above 100 nM.
In the case of `CN1CCN(c2ccc(Nc3cc(-c4ccc(NC(=O)C5CCCCC5)cc4F)nc4cc[nH]c(=O)c34)nc2)CC1` [I-184, N-[3-fluoro-4-[4-[[5-(4-methyl-piperazin-1-yl)-2-pyridyl]amino]-5-oxo-6H-1,6-naphthyridin-2-yl]phenyl] cyclohexane carboxamide] it was more than 1000 nM.
In the case of `COc1cccc(F)c1-c1cc(Nc2ccc(N3CCC(O)CC3)cn2)c2c(=O)[nH]ccc2n1` [I-185, 2-(2-fluoro-6-methoxy-phenyl)-4-[[5-(4-hydroxy-1-piperidyl)-2-pyridyl]amino]-6H-1,6-naphthyridin-5-one] it was 100 to 1000 nM.
Turning to `CC(C)Oc1cc(-c2cc(Nc3ccc(N4CCC(O)CC4)cn3)c3c(=O)[nH]ccc3n2)c(F)cc1C(=O)N1CCCCC1` [I-186, 2-[2-fluoro-5-isopropoxy-4-(piperidine-1-carbonyl)phenyl]-4-[[5-(4-hydroxy-1-piperidyl)-2-pyridyl]amino]-6H-1,6-naphthyridin-5-one], the IC50 is not above 100 nM.
As to `COc1cc(-c2cc(Nc3ccc(N4CCNCC4)cn3)c3c(=O)[nH]ccc3n2)ccc1C(=O)N1CCCCC1` [I-187, 2-[3-methoxy-4-(piperidine-1-carbonyl)phenyl]-4-[(5-piperazin-1-yl-2-pyridyl)amino]-6H-1,6-naphthyridin-5-one], the IC50 is 100 to 1000 nM.
In the case of `COCCOC1CN(c2ccc(Nc3cc(-c4cc(OC)c(C(=O)N5CCCCC5)cc4F)nc4cc[nH]c(=O)c34)nc2)C1` [I-188, 2-[2-fluoro-5-methoxy-4-(piperidine-1-carbonyl)phenyl]-4-[[5-[3-(2-methoxy-ethoxy)azetidin-1-yl]-2-pyridyl]amino]-6H-1,6-naphthyridin-5-one], the IC50 is not above 100 nM.
For the compound `COCCOC1CN(c2ccc(Nc3cc(-c4ccc(NC(=O)C5CCCCC5)cc4F)nc4cc[nH]c(=O)c34)nc2)C1` [I-189, N-[3-fluoro-4-[4-[[5-[3-(2-methoxy-ethoxy)azetidin-1-yl]-2-pyridyl]amino]-5-oxo-6H-1,6-naphthyridin-2-yl]phenyl] cyclohexane carboxamide], the IC50 lay within 100 to 1000 nM.
Take `COc1cc(-c2cc(Nc3ccc(N4[C@H](C)COC[C@H]4C)cn3)c3c(=O)[nH]ccc3n2)c(F)cc1C(=O)N1CCCCC1` [I-190, 4-[[5-[(3R, 5R)-3,5-dimethyl-morpholin-4-yl]-2-pyridyl]amino]-2-[2-fluoro-5-methoxy-4-(piperidine-1-carbonyl)phenyl]-6H-1,6-naphthyridin-5-one]: the IC50 is 100 to 1000 nM.
As for `C[C@@H]1COC[C@@H](C)N1c1ccc(Nc2cc(-c3ccc(NC(=O)C4CCCCC4)cc3F)nc3cc[nH]c(=O)c23)nc1` [I-191, N-[4-[4-[[5-[(3R,5R)-3,5-dimethyl-morpholin-4-yl]-2-pyridyl]amino]-5-oxo-6H-1,6-naphthyridin-2-yl]-3-fluoro-phenyl] cyclohexane-carboxamide], the figure is not above 100 nM.
As for `O=c1[nH]ccc2nc(-c3cc4c(cc3F)CCC4O)cc(Nc3ccc(N4CCC(O)CC4)cn3)c12` (centres unmarked) [I-192, 2-(6-fluoro-3-hydroxy-indan-5-yl)-4-[[5-(4-hydroxy-1-piperidyl)-2-pyridyl]amino]-6H-1,6-naphthyridin-5-one], the figure is 100 to 1000 nM; as for `COc1cc(-c2cc(Nc3ccc(N4CCN(C)CC4)cn3)c3c(=O)[nH]ccc3n2)c(F)cc1C(=O)N1CCCCC1` [I-193, 2-[2-fluoro-5-methoxy-4-(piperidine-1-carbonyl)phenyl]-4-[[5-(4-methyl-piperazin-1-yl)-2-pyridyl]amino]-6H-napthyridin-5-one], 100 to 1000 nM; as for `Cc1cc(-c2cc(Nc3ccc(N4CCC(O)CC4)cn3)c3c(=O)[nH]ccc3n2)c(F)cc1CN1CCCCC1` [I-194, 2-[2-fluoro-5-methyl-4-(1-piperidyl-methyl)phenyl]-4-[[5-(4-hydroxy-1-piperidyl)-2-pyridyl]amino]-6H-1,6-naphthyridin-5-one], not above 100 nM.
In the case of `COc1cc(-c2cc(Nc3ccc(N4CCC(O)CC4)cn3)c3c(=O)[nH]ccc3n2)ccc1C(=O)N1CCCCC1` [I-195, 4-[[5-(4-hydroxy-1-piperidyl)-2-pyridyl]amino]-2-[3-methoxy-4-(piperidine-1-carbonyl)phenyl]-6H-1,6-naphthyridin-5-one], the IC50 is more than 1000 nM.
As for `CCOc1cc(-c2cc(Nc3ccc(N4CCC(O)CC4)cn3)c3c(=O)[nH]ccc3n2)c(F)cc1C(=O)N1CCCCC1` [I-196, 2-[5-ethoxy-2-fluoro-4-(piperidine-1-carbonyl)phenyl]-4-[[5-(4-hydroxy-1-piperidyl)-2-pyridyl]amino]-6H-1,6-naphthyridin-5-one], the 50% inhibitory concentration (IC50) lay in the range of 100 to 1000 nM.
In the case of `Cc1cc(-c2cc(Nc3ccc(N4CCNCC4)cn3)c3c(=O)[nH]ccc3n2)c(F)cc1NC(=O)C1CCCCC1` [I-197, N-[5-fluoro-2-methyl-4-[5-oxo-4-[(5-piperazin-1-yl-2-pyridyl)amino]-6H-1,6-naphthyridin-2-yl]phenyl] cyclohexane carboxamide] it was 100 to 1000 nM.
As for `COc1cc(-c2cc(Nc3ccc(C4CC4)cn3)c3c(=O)[nH]ccc3n2)c(F)cc1C(=O)N1CCCCC1` [I-198, 4-[(5-cyclopropyl-2-pyridyl)amino]-2-[2-fluoro-5-methoxy-4-(piperidine-1-carbonyl)phenyl]-6H-1,6-naphthyridin-5-one], the figure is 100 to 1000 nM; as for `COc1cc(-c2cc(Nc3cnn(C)c3)c3c(=O)[nH]ccc3n2)c(F)cc1C(=O)N1CCCCC1` [I-199, 2-[2-fluoro-5-methoxy-4-(piperidine-1-carbonyl)phenyl]-4-[(1-methyl-pyrazol-4-yl)amino]-6H-1,6-naphthyridin-5-one], 100 to 1000 nM; as for `CNC1CCc2cc(F)c(-c3cc(Nc4ccc(N5CCC(O)CC5)cn4)c4c(=O)[nH]ccc4n3)cc21` (centres unmarked) [I-200, 2-[6-fluoro-3-(methyl-amino)indan-5-yl]-4-[[5-(4-hydroxy-1-piperidyl)-2-pyridyl]amino]-6H-1,6-naphthyridin-5-one], not above 100 nM.
As for `O=C(Nc1ccc(-c2cc(Nc3ccc(N4CC(F)(F)C4)cn3)c3c(=O)[nH]ccc3n2)c(F)c1)C1CCCCC1` [I-201, N-[4-[4-[[5-(3,3-difluoro-azetidin-1-yl)-2-pyridyl]amino]-5-oxo-6H-1,6-naphthyridin-2-yl]-3-fluoro-phenyl] cyclohexane-carboxamide], the figure is not above 100 nM; as for `COc1cc(F)c(-c2cc(Nc3ccc(N4CCC(O)CC4)cn3)c3c(=O)[nH]ccc3n2)cc1CN1CCCCC1` [I-202, 2-[2-fluoro-4-methoxy-5-(1-piperidyl-methyl)phenyl]-4-[[5-(4-hydroxy-1-piperidyl)-1-2-pyridyl]amino]-6H-1,6-naphthyridin 5-one], not above 100 nM.
As to `O=c1[nH]ccc2nc(-c3ccc4c(c3F)CCC4O)cc(Nc3ccc(N4CCC(O)CC4)cn3)c12` (centres unmarked) [I-203, 2-(4-fluoro-1-hydroxy-indan-5-yl)-4-[[5-(4-hydroxy-1-piperidyl)-2-pyridyl]amino]-6H-1,6-naphthyridin-5-one], the IC50 was not above 100 nM.
Take `COC1CCN(c2ccc(Nc3cc(-c4ccc(NC(=O)C5CCCCC5)cc4F)nc4cc[nH]c(=O)c34)nc2)CC1` [I-204, N-[3-fluoro-4-[4-[[5-(4-methoxy-1-piperidyl)-2-pyridyl]amino]-5-oxo-6H-1,6-naphthyridin-2-yl]phenyl] cyclohexane carboxamide]: the IC50 was not above 100 nM.
As to `CC1(C(=O)Nc2ccc(-c3cc(Nc4ccc(N5CCC(O)CC5)cn4)c4c(=O)[nH]ccc4n3)c(F)c2)COC1` [I-205], the IC50 is not above 100 nM.
As to `COc1cc(-c2cc(Nc3ccc(N4CCC(O)CC4)cn3)c3c(=O)[nH]ccc3n2)c(F)cc1C(=O)N1CCCC1` [I-206, 2-[2-fluoro-5-methoxy-4-(pyrrolidine-1-carbonyl)phenyl]-4-[[5-(4-hydroxy-1-piperidyl)-2-pyridyl]amino]-6H-naphthyridin-5-one], the IC50 was not above 100 nM.
Turning to `O=C(Nc1ccc(-c2cc(Nc3ccc(N4C[C@H]5COC[C@H]5C4)cn3)c3c(=O)[nH]ccc3n2)c(F)c1)C1CCCCC1` [I-207, N-[4-[4-[[5-[(3aR,6aS)-1,3,3a,4,6,6a-hexahydro-furo[3,4-c]pyrrol-5-yl]-2-pyridyl]amino]-5-oxo-6H-1,6-naphthyridin-2-yl]-3-fluoro-phenyl] cyclohexane-carboxamide], the IC50 is not above 100 nM.
In the case of `COc1cc(-c2cc(Nc3ccc(N4CCNCC4)cn3)c3c(=O)[nH]ccc3n2)c(F)cc1NC(=O)C1CCCCC1` [I-208, N-[5-fluoro-2-methoxy-4-[5-oxo-4-[(5-piperazin-1-yl-2-pyridyl)amino]-6H-1,6-naphthyridin-2-yl]phenyl] cyclohexane carboxamide] it was 100 to 1000 nM; in that of `COc1cc(-c2cc(Nc3ccc(N4CCC(OC)CC4)cn3)c3c(=O)[nH]ccc3n2)c(F)cc1C(=O)N1CCCCC1` [I-209, 2-[2-fluoro-5-methoxy-4-(piperidine-1-carbonyl)phenyl]-4-[[5-(4-methoxy-1-piperidyl)-2-pyridyl]amino]-6H-1,6-naphthyridin-5-one], 100 to 1000 nM.
As for `CN(C(=O)C1(C)COC1)c1ccc(-c2cc(Nc3ccc(N4CCC(O)CC4)cn3)c3c(=O)[nH]ccc3n2)c(F)c1` [I-210, N-[3-fluoro-4-[4-[[5-(4-hydroxy-1-piperidyl)-2-pyridyl]amino]-5-oxo-6H-1,6-naphthyridin-2-yl]phenyl]-N,3-dimethyl-oxetane-3-carboxamide], the figure is not above 100 nM.
